Experimental data published in patent US8946441B2, “Polymorphs of an active pharmaceutical ingredient” (Sandoz AG, priority 2010, dated 2015).
In brackets after ≈: the same amount, converted by molar mass. Blank lines part the entries; values can stand above or below the compound they belong to.

Legend:
[1] = form A, prior art references (EP1020454, US 7,361,676); cited from earlier work
[2] = Moisture sorption/desorption isotherm (SPS-11 moisture sorption analyzer); type: physicochemical; settings: for hygroscopicity: 0% to 90% RH, 25°C
Protocol: The moisture sorption/desorption isotherms were recorded with a SPS-11 moisture sorption analyzer (MD Messtechnik, Ulm, D). […] The equilibrium condition for each step was set to a mass constancy of ±0.01% over 30 min. The temperature was 25±0.1° C.

[3] = Polymorphic stability on storage; type: physicochemical
[4] = Water content according to Karl Fischer; type: physicochemical; settings: stored at 20° C., ambient pressure, 0% up to 90% relative humidity
[5] = Kinetics of conversion to hemihydrate G in a mix of methanol and water; type: physicochemical
Excerpt: The solvent system methanol/water represents a model for the dissolution of solid states of Febuxostat, with the hemihydrate G representing a thermodynamic very stable form with low solubility in aqueous systems.

[6] = Solubility determination of form I and form A in methanol/water (1:1 v/v), UV-spectrophotometry at 314 nm; type: physicochemical; settings: MeOH/H2O 50%:50% v/v, 5 to 180 min, FIG. 8
Protocol: 25 mg of Febuxostat form I or form A, obtained according to the procedure described in EP1020454 were stirred in a mixture of 20 ml of methanol and water (1:1 v/v). 1 ml of the suspension was withdrawn from each suspension within a time range of 5 to 180 min with the aid of a volumetric pipette and filtered. The filtrate was diluted to 25 ml with a 50% (v/v) methanol/water mixture and the concentration was determined by UV-spectrophotometry at 314 nm (apparatus: Shimadzu UV 1800).
A calibration curve was determined based on a series of known concentrations in the same solvent system.

Compound: Cc1nc(-c2ccc(OCC(C)C)c(C#N)c2)sc1C(=O)O [form A, 2-(3-cyano-4-isobutyloxy-phenyl)-4-methyl-5-thiazolecarboxylic acid]
solubility [1]: 220 µg/mL (≈ 695 µM)

hygroscopicity ([2]; listed as polymorph I): nonhygroscopic
water content (KF) [4]: below 0.1%
kinetics of conversion to hemihydrate G compared to anhydrate A [5]: slower
increase in solubility compared to form A [6]: approximately 20%
Compound: Cc1nc(-c2ccc(OCC(C)C)c(C#N)c2)sc1C(=O)O [form I, 2-(3-cyano-4-isobutyloxy-phenyl)-4-methyl-5-thiazolecarboxylic acid]
polymorphic stability on storage ([3]; stress conditions, 40° C. for 3 months): does not change its polymorphic state properties

stability on storage ([3]; ambient conditions in open atmosphere for 5 weeks): stable
Compound: Cc1nc(-c2ccc(OCC(C)C)c(C#N)c2)sc1C(=O)O [tert.-amylalcohol solvate, 2-(3-cyano-4-isobutyloxy-phenyl)-4-methyl-5-thiazolecarboxylic acid]

hygroscopicity [2]: non hygroscopic
water uptake ([2]; up to a relative humidity of 90%): no significant water uptake
Compound: Cc1nc(-c2ccc(OCC(C)C)c(C#N)c2)sc1C(=O)O [Form II, 2-(3-cyano-4-isobutyloxy-phenyl)-4-methyl-5-thiazolecarboxylic acid]
polymorphic stability on storage ([3]; ambient temperature for 6 weeks): does not convert to another polymorphic form
